Measured values: patent publication US8937167B2 (Washington University, priority 2009, dated 2015)
Where two headings read alike, the source gives them in different places.

Molecular target: FimH (Escherichia coli, UniProt Q1R2J4)
Settings: for HAI Titer EC>50: Table 21
[1] = Table 19, Examples 30-36 numbering
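Further: hemagglutination inhibition of guinea pig erythrocytes agglutinated by type 1 piliated uropathogenic E. coli via FimH mannose binding, quantified through serial dilutions of compound.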

Structure (SMILES) | HAI Titer EC>90 | other results
COC(=O)c1cccc(-c2ccc(O[C@H]3O[C@H](CO)[C@@H](O)[C@H](O)[C@@H]3O)c(F)c2)c1 [Compound 4a, Methyl 3-[3-fluoro-4-[(2R,3S,4S,5S,6R)-3,4,5-trihydroxy-6-(hydroxymethyl)tetrahydropyran-2-yl]oxy-phenyl]benzoate] | – | HAI Titer EC>90 (Table 17, Examples 30-36 numbering): 0.75 µM
COC(=O)c1ccc(-c2ccc(O[C@H]3O[C@H](CO)[C@@H](O)[C@H](O)[C@@H]3O)cc2)s1 [Compound 13b, Methyl 5-[4-[(2R,3S,4S,5S,6R)-3,4,5-trihydroxy-6-(hydroxymethyl)tetrahydropyran-2-yl]oxyphenyl]thiophene-2-carboxylate] | – | HAI Titer EC>90 [1]: 1.0 µM
COC1OC(CO)C(O)C(O)C1O (stereo not drawn) [Methylaman, reference compound] | – | EC50 (read-out: HA 50% titer, Example 6 numbering): > 1000 µM
NCCNC(=O)c1cccc(-c2ccc(O[C@H]3O[C@H](CO)[C@@H](O)[C@H](O)[C@@H]3O)cc2)c1 [Compound 10b, N-(2-Aminoethyl)-3-[4-[(2R,3S,4S,5S,6R)-3,4,5-trihydroxy-6-(hydroxymethyl)tetrahydropyran-2-yl]oxyphenyl]benzamide] | – | HAI Titer EC>90 (Table 18, Examples 30-36 numbering): 3.0 µM; fold drop in HAI activity (relative to methyl amide 2): 6 fold
OCc1ccc(-c2ccc(OC3OC(CO)C(O)C(O)C3O)cc2)cc1 (stereo not drawn) [Compound 3ZFH24, 2-(hydroxymethyl)-6-[4-[4-(hydroxymethyl)phenyl]phenoxy]tetrahydropyran-3,4,5-triol] | 6.000 µM | –
CNC(=O)c1cccc(-c2ccc(OC3OC(CO)C(O)C(O)C3O)cc2C(=O)OC)c1 (stereo not drawn) [Compound 2ZFH265, methyl 2-[3-(methylcarbamoyl)phenyl]-5-[3,4,5-trihydroxy-6-(hydroxymethyl)tetrahydropyran-2-yl]oxy-benzoate] | 2.000 µM | –
Cc1ccc(OC2OC(CO)C(O)C(O)C2O)cc1 (stereo not drawn) [Compound 2ZFH175, 2-(hydroxymethyl)-6-(4-methylphenoxy)tetrahydropyran-3,4,5-triol] | 8.000 µM | –
COC(=O)Cc1cc(OC2OC(CO)C(O)C(O)C2O)ccc1O (stereo not drawn) [Compound 1ZFH187, methyl 2-[2-hydroxy-5-[3,4,5-trihydroxy-6-(hydroxymethyl)tetrahydropyran-2-yl]oxy-phenyl]acetate] | 15.000 µM | –
O=[N+]([O-])c1ccc(OC2OC(CO)C(O)C(O)C2O)cc1 (stereo not drawn) [PNP-mannoside, reference compound] | 31.000 µM | –
CC(=O)Nc1ccccc1OC1OC(CO)C(O)C(O)C1O (stereo not drawn) [Compound 1ZFH95, N-[2-[3,4,5-trihydroxy-6-(hydroxymethyl)tetrahydropyran-2-yl]oxyphenyl]acetamide] | 125.000 µM | –
OCC1OC(Oc2ccccc2Cl)C(O)C(O)C1O (stereo not drawn) [Compound 2ZFH180, 2-(2-chlorophenoxy)-6-(hydroxymethyl)tetrahydropyran-3,4,5-triol] | 4.000 µM | –
NC(=O)Nc1csc(-c2ccc(O[C@H]3O[C@H](CO)[C@@H](O)[C@H](O)[C@@H]3O)cc2)c1 [Compound 13c, [5-[4-[(2R,3S,4S,5S,6R)-3,4,5-Trihydroxy-6-(hydroxymethyl)tetrahydropyran-2-yl]oxyphenyl]-3-thienyl]urea] | – | HAI Titer EC>90 [1]: 1.0 µM
N#Cc1ccccc1OC1OC(CO)C(O)C(O)C1O (stereo not drawn) [Compound 3m] | – | EC50 (read-out: HA 50% Titer, Table 10, Example 6 numbering): 6 µM
CC(=O)Nc1ccc(-c2ccc(OC3OC(CO)C(O)C(O)C3O)cc2)cc1C(=O)O (stereo not drawn) [Compound 4ZFH306] | – | HAI Titer EC>50 (ZFH/JWJ codes): 0.750 µM
COc1ccc(OC2OC(CO)C(O)C(O)C2O)cc1 (stereo not drawn) [Compound 2ZFH176, 2-(hydroxymethyl)-6-(4-methoxyphenoxy)tetrahydropyran-3,4,5-triol] | 8.000 µM | –
OCc1ccc(-c2ccc(OC3OC(CO)C(O)C(O)C3O)cc2)cc1 (stereo not drawn) [Compound 14i] | – | EC90 (read-out: HA 50% titer EC90, Table 12, Example 6 numbering): 6 µM
N#Cc1ccccc1-c1ccc(OC2OC(CO)C(O)C(O)C2O)cc1 (stereo not drawn) [Compound 3ZFH64, 2-[4-[3,4,5-trihydroxy-6-(hydroxymethyl)tetrahydropyran-2-yl]oxyphenyl]benzonitrile] | 2.000 µM | –
COC(=O)c1cccc(OC2OC(CO)C(O)C(O)C2O)c1 (stereo not drawn) [Compound 1ZFH101, methyl 3-[3,4,5-trihydroxy-6-(hydroxymethyl)tetrahydropyran-2-yl]oxybenzoate] | 6.000 µM | –
OCC1OC(Oc2cccc(Cl)c2)C(O)C(O)C1O (stereo not drawn) [Compound 2ZFH181, 2-(3-chlorophenoxy)-6-(hydroxymethyl)tetrahydropyran-3,4,5-triol] | 8.000 µM | –
OCc1ccccc1-c1ccc(OC2OC(CO)C(O)C(O)C2O)cc1 (stereo not drawn) [Compound 3ZFH114, 2-(hydroxymethyl)-6-[4-[2-(hydroxymethyl)phenyl]phenoxy]tetrahydropyran-3,4,5-triol] | 16.000 µM | –

Structure (SMILES) | HAI Titer EC>90 | other results
O=C(c1cccc(-c2ccc(OC3OC(CO)C(O)C(O)C3O)cc2)c1)N1CCNCC1 (stereo not drawn) [Compound 3ZFH284, piperazin-1-yl-[3-[4-[3,4,5-trihydroxy-6-(hydroxymethyl)tetrahydropyran-2-yl]oxyphenyl]phenyl]methanone] | 4.0000 µM | –
O=[N+]([O-])c1cccc(OC2OC(CO)C(O)C(O)C2O)c1 (stereo not drawn) [Compound 2ZFH100, 2-(hydroxymethyl)-6-(3-nitrophenoxy)tetrahydropyran-3,4,5-triol] | 16.000 µM | –
O=C(NCCO)c1cccc(-c2ccc(OC3OC(CO)C(O)C(O)C3O)cc2)c1 (stereo not drawn) [Compound 3ZFH276, N-(2-hydroxyethyl)-3-[4-[3,4,5-trihydroxy-6-(hydroxymethyl)tetrahydropyran-2-yl]oxyphenyl]benzamide] | 0.5000 µM | –
NCCNC(=O)c1cccc(-c2ccc(OC3OC(CO)C(O)C(O)C3O)cc2)c1 (stereo not drawn) [Compound 3ZFH280, N-(2-aminoethyl)-3-[4-[3,4,5-trihydroxy-6-(hydroxymethyl)tetrahydropyran-2-yl]oxyphenyl]benzamide] | 3.000 µM | –
OCC1OC(Oc2ccc(-c3cccc4cnccc34)cc2)C(O)C(O)C1O (stereo not drawn) [Compound 5ZFH61] | – | HAI Titer EC>50 (ZFH/JWJ codes): 0.250 µM
NC(=O)c1ccccc1-c1ccc(OC2OC(CO)C(O)C(O)C2O)cc1 (stereo not drawn) [Compound 3ZFH66, 2-[4-[3,4,5-trihydroxy-6-(hydroxymethyl)tetrahydropyran-2-yl]oxyphenyl]benzamide] | 6.000 µM | –
COc1ccccc1-c1ccc(OC2OC(CO)C(O)C(O)C2O)cc1 (stereo not drawn) [Compound 3ZFH188, 2-(hydroxymethyl)-6-[4-(2-methoxyphenyl)phenoxy]tetrahydropyran-3,4,5-triol] | 2.000 µM | –
N#Cc1cccc(-c2ccc(OC3OC(CO)C(O)C(O)C3O)cc2)c1 (stereo not drawn) [Compound 3ZFH68, 3-[4-[3,4,5-trihydroxy-6-(hydroxymethyl)tetrahydropyran-2-yl]oxyphenyl]benzonitrile] | 1.000 µM | –
CNS(=O)(=O)c1cccc(-c2ccc(OC3OC(CO)C(O)C(O)C3O)cc2)c1 (stereo not drawn) [Compound 3ZFH179, N-methyl-3-[4-[3,4,5-trihydroxy-6-(hydroxymethyl)tetrahydropyran-2-yl]oxyphenyl]benzenesulfonamide] | 1.000 µM | –
COC(=O)c1ccc(-c2cccc(OC3OC(CO)C(O)C(O)C3O)c2)cc1 (stereo not drawn) [Compound 1ZFH265, methyl 4-[3-[3,4,5-trihydroxy-6-(hydroxymethyl)tetrahydropyran-2-yl]oxyphenyl]benzoate] | 6.000 µM | –
O=[N+]([O-])c1ccc(-c2ccc(OC3OC(CO)C(O)C(O)C3O)cc2)cc1 (stereo not drawn) [Compound 3ZFH72, 2-(hydroxymethyl)-6-[4-(4-nitrophenyl)phenoxy]tetrahydropyran-3,4,5-triol] | 2.000 µM | –
CNC(=O)c1cccc(-c2ccc(CC3OC(CO)C(O)C(O)C3O)cc2)c1 (stereo not drawn) [Compound 5ZFH49] | – | HAI Titer EC>50 (ZFH/JWJ codes): 1.000 µM
N#Cc1ccc(-c2ccc(OC3OC(CO)C(O)C(O)C3O)cc2)cc1 (stereo not drawn) [Compound 3ZFH70, 4-[4-[3,4,5-trihydroxy-6-(hydroxymethyl)tetrahydropyran-2-yl]oxyphenyl]benzonitrile] | 8.000 µM | –
COC(=O)c1cccc(OC2OC(CO)C(O)C(O)C2O)c1 (stereo not drawn) [Compound 3j] | – | fold loss of HA potency (carboxylic acid relative to matched pair methyl ester 3j): 10 fold
COC(=O)c1cccc(-c2ccc(C(=O)NCC3O[C@@H](CO)[C@@H](O)[C@H](O)[C@H]3O)cc2)c1 (stereo partly drawn) [Compound 4ZFH131, methyl 3-[4-[[(3R,4R,5S,6S)-3,4,5-trihydroxy-6-(hydroxymethyl)tetrahydropyran-2-yl]methylcarbamoyl]phenyl]benzoate] | 16.000 µM | HAI Titer EC>50 (ZFH/JWJ codes): 16.000 µM; HAI Titer EC>90 (Table 22, ZFH/JWJ codes): 16.000 µM
OCC1OC(Oc2ccc3ccccc3c2)C(O)C(O)C1O (stereo not drawn) [Compound 1ZFH185, 2-(hydroxymethyl)-6-(2-naphthyloxy)tetrahydropyran-3,4,5-triol] | 6.000 µM | –
O=C(NCC1O[C@@H](CO)[C@@H](O)[C@H](O)[C@H]1O)c1ccc(Br)cc1 (stereo partly drawn) [Compound 4ZFH123, 4-bromo-N-[[(3R,4R,5S,6S)-3,4,5-trihydroxy-6-(hydroxymethyl)tetrahydropyran-2-yl]methyl]benzamide] | 16.000 µM | HAI Titer EC>50 (ZFH/JWJ codes): 16.000 µM; HAI Titer EC>90 (Table 22, ZFH/JWJ codes): 16.000 µM
N#Cc1ccccc1OC1OC(CO)C(O)C(O)C1O (stereo not drawn) [Compound 2ZFH108, 2-[3,4,5-trihydroxy-6-(hydroxymethyl)tetrahydropyran-2-yl]oxybenzonitrile] | 6.000 µM | –
O=C(NCCCCCCCCNC(=O)c1cccc(-c2ccc(OC3OC(CO)C(O)C(O)C3O)cc2)c1)c1cccc(-c2ccc(OC3OC(CO)C(O)C(O)C3O)cc2)c1 (stereo not drawn) [Compound 2ZFH234, 3-[4-[3,4,5-trihydroxy-6-(hydroxymethyl)tetrahydropyran-2-yl]oxyphenyl]-N-[8-[[3-[4-[3,4,5-trihydroxy-6-(hydroxymethyl)tetrahydropyran-2-yl]oxyphenyl]benzoyl]amino]octyl]benzamide] | 2.00 µM | –
CC(=O)Nc1ccc(-c2ccc(OC3OC(CO)C(O)C(O)C3O)cc2)cc1 (stereo not drawn) [Compound 4ZFH277] | – | HAI Titer EC>50 (ZFH/JWJ codes): 1.000 µM
